Laboratory results taken from ChEMBL document CHEMBL1201862, “PubChem BioAssay data set” (2004).
Activity calls are given as the source filed them.

Key:
[1] = target: Cytochrome P450 2C19 (Homo sapiens, UniProt P33261); test: Cytochrome panel assay with activity outcomes. Panel member name: p450-cyp2c19 Compounds with AC50 equal or less than 10 uM are considered active; format: functional; conditions: read-out: AC50
[2] = target: T1, Cytochrome P450 1A2 (Homo sapiens, UniProt P05177)
T1 sequence (P05177 whole entry): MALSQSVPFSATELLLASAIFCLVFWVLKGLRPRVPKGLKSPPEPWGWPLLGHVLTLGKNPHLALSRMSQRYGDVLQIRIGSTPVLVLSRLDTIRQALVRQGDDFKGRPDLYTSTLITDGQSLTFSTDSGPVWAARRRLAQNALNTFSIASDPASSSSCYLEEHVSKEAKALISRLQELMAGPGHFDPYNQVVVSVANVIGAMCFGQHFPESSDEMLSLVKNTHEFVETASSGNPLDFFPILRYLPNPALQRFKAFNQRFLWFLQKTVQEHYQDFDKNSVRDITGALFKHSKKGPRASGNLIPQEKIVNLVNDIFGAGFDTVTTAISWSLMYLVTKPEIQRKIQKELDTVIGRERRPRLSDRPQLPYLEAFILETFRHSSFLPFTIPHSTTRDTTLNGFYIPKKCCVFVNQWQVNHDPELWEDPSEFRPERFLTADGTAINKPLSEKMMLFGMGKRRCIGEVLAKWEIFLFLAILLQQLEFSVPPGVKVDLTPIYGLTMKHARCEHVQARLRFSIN

[3] = target: Cytochrome P450 2C9 (Homo sapiens, UniProt P11712)
Cytochrome P450 2C9, sequence (P11712 whole entry): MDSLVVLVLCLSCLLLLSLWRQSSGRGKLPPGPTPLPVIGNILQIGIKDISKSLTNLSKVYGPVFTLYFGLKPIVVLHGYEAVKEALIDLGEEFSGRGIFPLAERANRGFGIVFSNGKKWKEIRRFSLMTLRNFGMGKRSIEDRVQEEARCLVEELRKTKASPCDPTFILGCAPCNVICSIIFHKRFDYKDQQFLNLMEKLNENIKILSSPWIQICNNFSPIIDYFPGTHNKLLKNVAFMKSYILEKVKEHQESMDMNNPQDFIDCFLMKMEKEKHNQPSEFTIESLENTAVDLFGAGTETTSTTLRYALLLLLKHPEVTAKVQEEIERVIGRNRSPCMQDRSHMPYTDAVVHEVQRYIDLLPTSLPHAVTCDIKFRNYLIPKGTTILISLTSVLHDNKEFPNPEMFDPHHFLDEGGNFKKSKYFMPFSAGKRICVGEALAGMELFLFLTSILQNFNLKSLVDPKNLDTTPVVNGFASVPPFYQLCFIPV

[4] = target: T2, Rac GTPase-activating protein 1 (Homo sapiens, UniProt Q9H0H5); test: blockers of MgcRacGAP-driven Rac1 GTP hydrolysis – biochemical, ADP Hunter fluorescence, primary and confirmatory, confirmation (AID 624330); format: functional
T2 sequence (Q9H0H5 whole entry): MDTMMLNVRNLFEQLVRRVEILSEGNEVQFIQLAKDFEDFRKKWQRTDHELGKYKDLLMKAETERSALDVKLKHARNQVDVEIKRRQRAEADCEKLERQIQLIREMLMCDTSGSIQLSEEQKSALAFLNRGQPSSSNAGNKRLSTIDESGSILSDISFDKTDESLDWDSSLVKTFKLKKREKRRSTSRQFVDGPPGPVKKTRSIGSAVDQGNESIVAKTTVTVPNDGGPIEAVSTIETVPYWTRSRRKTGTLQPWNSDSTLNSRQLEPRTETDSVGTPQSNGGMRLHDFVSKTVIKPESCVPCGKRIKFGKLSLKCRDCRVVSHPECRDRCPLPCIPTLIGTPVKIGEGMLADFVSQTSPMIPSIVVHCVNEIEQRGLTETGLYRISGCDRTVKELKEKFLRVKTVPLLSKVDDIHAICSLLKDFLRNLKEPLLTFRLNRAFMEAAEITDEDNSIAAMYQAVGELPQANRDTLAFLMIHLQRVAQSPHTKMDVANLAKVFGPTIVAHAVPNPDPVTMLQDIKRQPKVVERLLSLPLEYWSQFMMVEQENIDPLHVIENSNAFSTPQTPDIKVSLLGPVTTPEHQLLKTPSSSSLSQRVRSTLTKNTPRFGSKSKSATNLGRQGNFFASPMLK

[5] = tested on: H4; test: Luminescence Cell-Based Dose Response HTS to Identify Activators of 5'UTR Stem-Loop Driven Prion Protein mRNA Translation in H4 Neuroglioblastoma Cells. [Related pubchem assays: 1829 (Project Summary), 1814 (Primary HTS)]; format: functional; conditions: Homo sapiens
[6] = tested on: Streptococcus sp. 'group A'; test: Streptococcus pyogenes SK(-)GAS viability under kanamycin – luminescence, BacTiterGlo, confirmation, counter-screen for streptokinase expression inhibitor project, dose response (AID 1900); format: functional, organism-based
[7] = target: T3, Streptokinase A (Streptococcus pyogenes serotype M1, UniProt P10520); test: viability-normalized secreted streptokinase activity reduction – plasminogen activation absorbance, OD405, dose response (AID 1914); format: functional, Streptococcus pyogenes M1 GAS;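 further: secreted streptokinase activity via plasminogen activation per viability signal from cell pellet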
T3 sequence (P10520 whole entry): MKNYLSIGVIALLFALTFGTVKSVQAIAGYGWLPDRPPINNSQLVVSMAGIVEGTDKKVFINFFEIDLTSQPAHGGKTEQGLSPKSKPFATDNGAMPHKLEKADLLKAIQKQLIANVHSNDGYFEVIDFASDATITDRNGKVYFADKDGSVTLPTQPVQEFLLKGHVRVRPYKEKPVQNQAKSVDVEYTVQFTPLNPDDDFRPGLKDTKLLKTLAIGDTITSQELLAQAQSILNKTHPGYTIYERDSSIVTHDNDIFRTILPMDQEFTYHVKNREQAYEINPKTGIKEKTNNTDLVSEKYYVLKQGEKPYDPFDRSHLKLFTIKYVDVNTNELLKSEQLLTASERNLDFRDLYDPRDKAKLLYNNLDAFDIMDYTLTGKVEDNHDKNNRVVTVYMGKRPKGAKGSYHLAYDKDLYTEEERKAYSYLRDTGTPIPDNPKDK

[8] = tested on: Streptococcus; test: GAS UMAA2166 growth inhibition – luminescence, BacTiterGlo, counter-screen for streptokinase expression inhibitor project, dose response (AID 1915); format: functional, organism-based;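 further: potency for reduction of bacterial viability or growth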
[9] = Luminescence Cell-Based Dose Retest to Confirm Inhibitors of Cancer Stem Cells. [Related pubchem assays (depositor defined):AID2717, AID2721]; format: functional; conditions: Homo sapiens
[10] = NIH-3T3 fibroblast cytotoxicity, dose response, cytotoxicity control, cell-based, fluorescence, Alamar Blue, secondary assay (AID 2327); format: functional;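 further: NIH-3T3 mouse fibroblasts cultured with fluconazole at 8 µg/mL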
[11] = fluconazole-exposed Candida albicans growth modulators – fluorescence, retest, confirmation (AID 2467); format: functional, cell-based
[12] = target: Cytochrome P450 3A4 (Homo sapiens, UniProt P08684);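 further: CYP3A4 tested as one member of a cytochrome P450 panel screen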
Cytochrome P450 3A4, sequence (P08684 whole entry): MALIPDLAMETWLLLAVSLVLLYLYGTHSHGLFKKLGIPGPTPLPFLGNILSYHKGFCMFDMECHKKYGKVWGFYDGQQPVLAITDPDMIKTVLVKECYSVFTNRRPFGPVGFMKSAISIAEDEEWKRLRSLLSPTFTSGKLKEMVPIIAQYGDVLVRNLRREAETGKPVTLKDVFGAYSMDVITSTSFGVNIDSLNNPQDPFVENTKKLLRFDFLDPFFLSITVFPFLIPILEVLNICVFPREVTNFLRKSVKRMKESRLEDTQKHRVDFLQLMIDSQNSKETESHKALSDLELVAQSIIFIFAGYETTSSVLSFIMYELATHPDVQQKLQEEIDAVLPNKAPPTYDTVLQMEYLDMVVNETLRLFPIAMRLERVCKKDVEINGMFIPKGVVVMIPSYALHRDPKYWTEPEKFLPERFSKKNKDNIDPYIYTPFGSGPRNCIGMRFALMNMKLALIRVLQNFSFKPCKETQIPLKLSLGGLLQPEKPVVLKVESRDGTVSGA

[13] = Luminescence Cell-Based Dose Response HTS to Identify Activators of Luciferase Translation or Activity in H4 […] Cells. [Related pubchem assays: 1829 (Project Summary), 1814 (Primary HTS)]; format: functional
[14] = tested on: INS1; test: INS-1E survival protection against cytokine death – cell-based, luminescence, retest, dose response (AID 449756); format: functional; conditions: Rattus norvegicus;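 further: cell death triggered by IL-1 beta plus TNF-alpha plus IFN-gamma mixture; protective hits raise ATP signal compared with cytokine alone wells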

Cytochrome P450 2C19, sequence (P33261 whole entry): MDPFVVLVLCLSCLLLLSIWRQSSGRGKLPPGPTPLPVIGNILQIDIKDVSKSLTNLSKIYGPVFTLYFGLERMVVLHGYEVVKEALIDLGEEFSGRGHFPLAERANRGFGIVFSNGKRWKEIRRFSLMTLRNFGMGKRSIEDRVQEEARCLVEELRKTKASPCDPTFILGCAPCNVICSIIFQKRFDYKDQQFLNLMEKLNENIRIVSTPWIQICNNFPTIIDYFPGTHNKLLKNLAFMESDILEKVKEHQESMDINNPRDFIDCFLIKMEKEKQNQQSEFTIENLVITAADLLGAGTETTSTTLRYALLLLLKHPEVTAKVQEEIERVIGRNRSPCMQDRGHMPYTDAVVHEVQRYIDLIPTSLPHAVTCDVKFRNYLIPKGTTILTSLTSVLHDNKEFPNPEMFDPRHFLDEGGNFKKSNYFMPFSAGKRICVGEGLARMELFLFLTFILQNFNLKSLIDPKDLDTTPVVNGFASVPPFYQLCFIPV

Question: With `O=C(c1ccncc1)N1CCC2(CC1)CCN(C(c1ccccc1)c1ccccc1)CC2` as the molecule, how does the AC50 [1] read?
Answer: 39.8 µM (inconclusive)

Question: What about the AC50 [2] of the same molecule?
Answer: 12.6 µM (inconclusive)

Question: And the AC50 [3]?
Answer: 12.6 µM (inconclusive)

Question: Which IC50 [4] does the source give for `CCCS(=O)(=O)N1CCN(C2CCC(C)CC2)CC1` (stereo not given) here?
Answer: 232 µM (active)

Question: With `Cc1ccccc1/C=C/c1nc(O)c2ccccc2n1` as the molecule, how does the EC50 [5] read?
Answer: 1.13 µM (active)

Question: With `COc1ccc(NCCC(O)c2ccc(Cl)cc2)cc1` (stereo not given) as the molecule, how does the IC50 [4] read?
Answer: 29.1 µM (active)

Question: With `CCOC(=O)C1CCCN(C2=NC(=O)/C(=C/c3ccc(O)c(OCC)c3)S2)C1` (stereo not given) as the molecule, how does the IC50 [4] read?
Answer: 26.5 µM (active)

Question: With `C/C(NCc1ccco1)=C1\C(=O)NC(=O)N(c2ccccc2)C1=O` as the molecule, how does the AC50 [3] read?
Answer: 39.8 µM (inconclusive)

Question: With `CC(C)CC(=O)NC(N=C(S)Nc1sc2c(c1C#N)CCCC2)C(Cl)(Cl)Cl` (stereo not given) as the molecule, how does the EC50 [6] read?
Answer: 3.06 µM (active)

Question: And the EC50 [7]?
Answer: 3.23 µM (active)

Question: What about the EC50 [8] of the same molecule?
Answer: 6.32 µM (active)

Question: And the AC50 [9]?
Answer: 0.974 µM (active)

Question: With `O=c1c(F)cn(C2CCCO2)c(=O)n1Cc1c(F)cccc1Cl` (stereo not given) as the molecule, how does the EC50 [10] read?
Answer: > 150 µM (inactive)

Question: What about the EC50 [11] of the same molecule?
Answer: > 38 µM (not active)

Question: What does the source list for `CCOC(=O)c1ccc(Oc2nc(NC(C)(C)C)nc(N(C)C)n2)cc1`?
Answer: EC50 [10]: > 150 µM (inactive); EC50 [11]: > 38 µM (not active)

Question: With `Cc1ccc(C2(C)NC(=O)N(CC(=O)Nc3cc(C)on3)C2=O)cc1` (stereo not given) as the molecule, how does the AC50 [12] read?
Answer: 25.1 µM (inconclusive)

Question: And the AC50 [3]?
Answer: 14.1 µM (inconclusive)

Question: With `Nc1ccc(/N=N\c2ccc(-c3ccc(O)cc3)cc2)c2ccc(S(=O)(=O)O)cc12` as the molecule, how does the AC50 [1] read?
Answer: 6.31 µM (inconclusive)

Question: And the AC50 [3]?
Answer: 5.01 µM (inconclusive)

Question: For `O=c1cc(CN2CCOCC2)c2ccc(O)c(O)c2o1`, which IC50 [4] is on record?
Answer: 82.7 µM (active)

Question: Which EC50 [10] does the source give for `COc1cccc(C(=O)NNC(=O)c2ccccc2Br)c1` here?
Answer: > 150 µM (inconclusive)

Question: And the EC50 [11]?
Answer: > 38 µM (not active)

Question: For `Cn1c(SCc2ccccc2)nnc1-c1ccc2c(c1)OCO2`, which EC50 [13] is on record?
Answer: 95.9 µM (active)

Question: And the EC50 [5]?
Answer: 29.8 µM (inconclusive)

Question: Which AC50 [9] does the source give for `COc1ccc(-c2cc(C(=O)N3CC4(C)CC3CC(C)(C)C4)no2)cc1` (stereo not given) here?
Answer: 0.442 µM (active)

Question: For `Cc1ccc(NCCC(=O)c2ccc(Cl)cc2)cc1`, which AC50 [12] is on record?
Answer: 12.6 µM (inconclusive)

Question: And the AC50 [3]?
Answer: 3.98 µM (inconclusive)

Question: Which AC50 [9] does the source give for `O=C(NCc1nc(-c2ccc(C(F)(F)F)cc2)no1)Nc1ccc(OC(F)(F)F)cc1` here?
Answer: 2.68 µM (active)

Question: With `Brc1ccc(CN2CCN(Cc3c[nH]c4ccccc34)CC2)cc1` as the molecule, how does the AC50 [14] read?
Answer: 6.68 µM (active)
